Laboratory results from US6476007B2, “Isoform specific inhibition for treatment of pain and reduction of anesthetic threshold” (The Johns Hopkins University, priority 1999, dated 2002).
Counter-ions that a name gives are not always drawn. Like-named read-outs stand apart in the source and are kept apart here.

How the values were obtained:
[1] = system: PKGIα expression in the spinal cord; assay: Western blot of PKGIα in lumbar enlargement segments 96 h after formalin injection; assay type: in vivo, rat; conditions: 96 h formalin-treated rats, not significant (p>0.05)
Method: Thirty five rats were sacrificed by decapitation at 0 h (normal control), 24 h, 48 h and 96 h after injection of saline (100 μl) or formalin (100 μl, 4%) into a hind paw. Lumbar enlargement segments of the spinal cord were dissected, quickly frozen in liquid nitrogen and stored at −80° C. for later use. Frozen tissues were homogenized in the homogenization buffer (50 mM Tris-HCl, 0.1 mM EDTA, 0.1mM EGTA, 1 mM phenylmethylsulfonyl fluoride, 1 μM leupeptin, 2 μM pepstatin A, 0.1% 2-mercaptoethanol). The crude homogenate was centrifuged at 4° C. for 15 min at 3,000×g. The supernatants (100 μg) were heated for 5 min at 90° C. and then loaded onto 4% stacking/7.5% separating SDS-polyacrylamide gels. The proteins were electrophoretically transferred onto nitrocellulose membrane and blocked with 2% non-fat dry milk and subsequently incubated for 1 h with polyclonal rabbit anti-PKGIα antibody (1:500) and with monoclonal mouse anti-endothelium NOS (eNOS) antibody (1:500) (Transduction Labs). Normal lung was used as a positive control. Specific proteins were detected using horseradish peroxidase-conjugated anti-rabbit or anti-mouse secondary antibody and visualized using chemiluminescence reagents provided with the ECL kit (Amersham Life Sciences Inc, II) and exposure to film. The intensity of blots was quantified with densitometry (Personal Densitometer/IMAGEQUANT; Molecular Dynamics).
In some experiments, rats were injected intraperitoneally (i.p.) with an NMDA receptor antagonist, MK-801 (RBI, MA), a selective neuronal NOS inhibitor (nNOS), 7-Nitroindazole (7-NI, Alexis Biochemicals, CA) and a selective sGC inhibitor, 1H-[1,2,4]oxadiazolo[4,3-a]quinoxalin-1-one (ODQ, Alexis Biochemicals, CA), each day for 4 days (96 h). The doses of MK-801, 7-NI and ODQ used in the present study were determined regarding to the previous studies (29-31). The experiments were divided into five groups. Group 1 (n=4) as control: i.p. injection of saline (0.9%, 2 ml) or peanut oil (2 ml) 30 min prior to the subcutaneous injection of saline (0.9%, 100 μl). […]

[2] = system: mechanical allodynia induced by capsaicin; conditions: Sluka and Willis (1997); cited from earlier work
[3] = system: NMDA-induced facilitation of the tail-flick reflex; assay: NMDA-induced facilitation of the tail-flick reflex; assay type: in vivo, rat
[4] = Subjective observation of animal behavior after intrathecal administration; conditions: period of 2 h, compared with control animals
[5] = system: tail-flick latency; assay: Radiant heat tail-flick test, agents given alone intrathecally; assay type: in vivo, rat; conditions: for maximal decrease in the tail-flick latency: compared to saline-treated group
[6] = system: NMDA-produced facilitation of the tail flick reflex; conditions: pretreatment, spinal cord; Meller et al., 1992a; cited from earlier work
[7] = system: NOC-12-induced decrease in the tail-flick latency; conditions: for effect on NOC-12-induced decrease in the tail-flick latency: tested 30 and 60 min, p<0.01
Method: Rats were anesthetized by intraperitoneal injection of pentobarbital sodium (45 mg/kg). Chronic intrathecal catheters were inserted by passing a polyethylene-10 (PE-10) catheter through an incision in the atlanto-occipital membrane to a position 8 cm caudal to the cistema at the level of the lumbar subarachinoid space. The animals were allowed to recover for a week before experiments were initiated. Rats showing neurologic deficits post-operatively were removed from the study.
Nociception was evaluated by the radiant heat tail-flick test with no anesthesia. Each rat was placed in an Animal Holder (IITC Life Science, CA, USA), 690 cm^3 in capacity with rubber stoppers in both ends with a rostral inlet and a caudal outlet. The tail of the rat protruded through the caudal hole. The tail-flick apparatus (Model 33B Tail Flick Analgesy Meter, IITC Life Science, CA, USA) generated a beam of radiant heat which was focused on the underside of the tail, 5 cm from the tip. […] Nociception was assessed by the prolongation of the time required to induce tail-flick after applying radiant heat to the skin of the tail. The latency of reflexive removal of the tail from the heat was measured automatically to the nearest 0.01 s. Tail-flick latency was measured six times and the basal latency was defined as the mean of the last five times. The tail-flick data are expressed as percentage change calculated by the formula: (trial latency—baseline latency)/(baseline latency)×100%.
The drug solution was injected intrathecally in a volume of 10 μl, followed by an injection of 10 μl of saline to flush the catheter.

[8] = system: formalin-induced c-fos expression in the spinal cord; conditions: for number of Fos-positive neurons in laminae I-II, III-IV and V-VI: vs water pretreated rats; for mean reduction in number of fos-positive neurons per section: vs control group, p<0.05
Method: For Fos immunohistochemistry, rats were perfused one hour after the behavioral test was done as described below. The lumbar spinal cord was removed and cut into 30 μm transverse sections. Sections were processed following the above-mentioned procedures except that the primary antibody was substituted with polyclonal rabbit anti-Fos antibody (1:4,000, Santa Cruz Biotechnology, Inc., CA).
(§1) The drug was dissolved in distilled water before administration. The animals were randomly assigned into four groups as follows: distilled water (control) (n=12); 10 μg of Rp-8-p-CPT-cGMPS (n=6); 20 μg of Rp-8-p-CPT-cGMPS (n=6); 30 μg of Rp-8-p-CPTc-GMPS (n=6). The drug solution was injected intrathecally in a volume of 10 μl, followed by an injection of 10 μl of distilled water to flush the catheter. Fifteen minutes later, formalin (100 μl, 4%) was injected into a hind paw of the rat. In addition, four rats were alone treated intrathecally with Rp-8-p-CPT-cGMPS (30 μg) and another four rats were normal without any treatment.

[9] = system: formalin-induced pain behavior; conditions: for reduction of the number of flinches and shakes evoked by formalin: 30 μg intrathecal
Method: The rats were implanted with an intrathecal catheter under pentobarbital anesthesia. A polyethylene (PE-10) tube was inserted into the subarachnoid space at the rostral level of the spinal cord lumbar enlargement through an incision at the atlanto-occipital membrane according to the method of Yaksh and Rudy (27). The animals were allowed to recover for 7 to 10 days before being used experimentally. Rats showing neurological deficits postoperatively were discarded.
as §1
Immediately following the formalin injection, each individual rat was placed in a transparent cage for observation of the formalin-injected paw. The pain-related behaviors, flinches and shakes, were assessed for the next 60 min by an experimenter who was unaware of the group assignment. The observational session was divided into two periods: a phasic period (0-10 min) and a tonic period (10-60 min). The mean number of flinches and shakes for each period of each treatment group was determined

[10] = 100 mg/kg i.p. in peanut oil each day for 4 days

## O=[N+]([O-])c1cccc2cn[nH]c12 [7-NI, 7-Nitroindazole]
[1]; [10]
  PKGIα protein level relative to group 1 (saline-injected control): 1.17 fold

## COC(=O)[C@@]1(OC)C[C@H]2O[C@]1(C)n1c3ccccc3c3c4c(c5c6ccccc6n2c5c31)C(=O)N(C)C4 [KT5823]
[2]
  effect on mechanical allodynia induced by capsaicin: reversed

## C[C@]12N[C@H](Cc3ccccc31)c1ccccc12 [MK-801, dizocilpine maleate]
[1]; 2 mg/kg i.p. each day for 4 days
  PKGIα protein level relative to group 1 (saline-injected control): 1.13 fold
[3]; prior intrathecal treatment, p<0.01
  effect on NMDA-produced facilitation of the tail-flick reflex: completely abolished

## CN[C@H](CC(=O)O)C(=O)O [NMDA, N-methyl-D-aspartate]
[4]
  changes in animal behavior on subjective observation: caudally directed biting and scratching behaviors
[5]; intrathecal NMDA, baseline 6.58±0.57 seconds, p<0.01
  tail-flick latency after intrathecal administration: 4.88 ± 0.41 s

## CCNCCN(CC)N(O)N=O [NOC-12, N-ethyl-2-(1-ethyl-2-hydroxy-2-nitrosohydrazino)ethanamine]
[4]
  changes in animal behavior on subjective observation: no obvious changes in animal behavior
[5]; 10 μg intrathecal
  maximal decrease in the tail-flick latency: 5.4%
[5]; 20 μg intrathecal, p<0.01
  maximal decrease in the tail-flick latency: 18.5%
[5]; 30 μg intrathecal, p<0.01
  maximal decrease in the tail-flick latency: 24.9%
[5]; 30 μg intrathecal, baseline 6.53±0.28 seconds
  tail flick latency after maximal reduction: 4.65 ± 0.32 s
[5]; 120 min after intrathecal injection
  hyperalgesia 120 min after intrathecal injection: no longer observed
[5]; intrathecal, decrease seen from 15 to 90 min
  time of maximum effect on tail-flick latency: 60 min

## COC(=O)[C@@H](N)CCCNC(=N)N[N+](=O)[O-] [N^G-nitro-L-arginine methyl ester]
[6]
  effect on NMDA-produced facilitation of the tail flick reflex: completely abolished

## O=c1onc2cnc3ccccc3n12 [ODQ, 1H-[1,2,4]oxadiazolo[4,3-a]quinoxalin-1-one]
[1]; [10]
  PKGIα protein level relative to group 1 (saline-injected control): 1.14 fold

## CCN(CC)CC.Nc1nc2c(nc(Sc3ccc(Cl)cc3)n2[C@@H]2O[C@@H]3COP(O)(=S)O[C@H]3[C@H]2O)c(=O)[nH]1 (stereo partly drawn) [Rp-8-p-CPT-cGMPS, Rp-8-[(4-Chlorophenyl)thio]-cGMPS triethylamine]
[7]; 7.5 μg intrathecal, 30 μg NOC-12, p>0.05
  effect on the hyperalgesia induced by NOC-12: did not influence
[7]; 15 μg intrathecal 10 min prior to 30 μg NOC-12
  effect on NOC-12-induced decrease in the tail-flick latency: significantly blocked
[7]; 30 μg intrathecal 10 min prior to 30 μg NOC-12
  effect on NOC-12-induced decrease in the tail-flick latency: significantly blocked
[8]; 20 μg intrathecal
  number of Fos-positive neurons in laminae I-II, III-IV and V-VI: significantly decreased
[8]; 30 μg intrathecal, neck of dorsal horn
  mean reduction in number of fos-positive neurons per section: 51%
[8]; 30 μg intrathecal, nucleus proprius
  mean reduction in number of fos-positive neurons per section: 30%
[8]; 30 μg intrathecal, superficial laminae
  mean reduction in number of fos-positive neurons per section: 29%
[8]; 30 μg intrathecal
  number of Fos-positive neurons in laminae I-II, III-IV and V-VI: significantly decreased
[8]; intrathecal 10, 20 and 30 μg, vs water
  number of Fos-positive neurons in laminae VII-X: no significant reduction
[8]; treatment with the agent only (30 μg intrathecal), no formalin
  Fos-positive neurons in the spinal cord: no Fos-positive neurons
[3]; 7.5 μg intrathecal, p>0.05
  effect on the NMDA-evoked facilitation of the tail-flick reflex: failed to produce significant effect
[3]; 15 μg intrathecal prior administration, p<0.01
  suppression of the NMDA-induced decrease of the tail-flick latency: 13.3%
[3]; 30 μg intrathecal prior administration, p<0.01
  suppression of the NMDA-induced decrease of the tail-flick latency: 20.7%
[4]
  changes in animal behavior on subjective observation: no obvious changes in animal behavior
[9]; 10 μg intrathecal, phasic or tonic period
  effect on the formalin response: did not influence
[9]; 20 μg intrathecal, phasic period
  effect on the formalin-induced behavior: no effect
[9]; 20 μg intrathecal, tonic period, p<0.01
  suppression of the formalin-induced behavior: 25%
[9]; phasic period (0-10 min), p<0.01
  reduction of the number of flinches and shakes evoked by formalin: 64%
[9]; tonic period (10-60 min), p<0.01
  reduction of the number of flinches and shakes evoked by formalin: 66%
[5]; 7.5, 15 and 30 μg given alone, 15 to 120 min after administration, p>0.05
  effect on the baseline tail-flick latency: no significant effect

## CN(C)c1ccc2nc3ccc(=[N+](C)C)cc-3sc2c1 [methylene blue]
[6]
  effect on NMDA-produced facilitation of the tail flick reflex: completely abolished
